# Results published in patent US20110301104A1, “Transition state structure of orotate phosphoribosyl transferases and uses thereof” (priority 2008, published 2011).
# Read-outs that look alike come from different tables or passages of the source.
# What was measured:
# Format in all cases: biochemical
# HsOPRT [1] = target: T1, HsOPRT (Homo sapiens, UniProt P11172); experiment: HsOPRT kinetic and inhibition assay (OMP with PA or PPi)
# T1 construct: This HsUMPase truncation construct only expresses its HsOPRT domain; His6 (thrombin-cleavable) (N, cleaved yes); made in house; host or cells: E. coli BL21-AI
# T1 sequence (P11172 1-245): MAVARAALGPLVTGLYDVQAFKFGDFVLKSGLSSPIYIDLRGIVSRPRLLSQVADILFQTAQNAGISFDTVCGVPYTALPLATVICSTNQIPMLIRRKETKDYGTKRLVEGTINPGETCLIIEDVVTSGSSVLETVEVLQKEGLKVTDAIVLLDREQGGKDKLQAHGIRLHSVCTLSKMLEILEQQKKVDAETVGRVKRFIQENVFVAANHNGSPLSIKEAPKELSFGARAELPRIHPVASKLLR
# Description: (§1) Expression and Purification of PfOPRT and HsOPRT. The pDEST14 vectors encoding the two OPRT genes were transformed into BL21-AI E. coli competent cells and grown in LB+Amp (100 μg mL^−1) at 37° C. to an OD600 of 0.6. Protein expression was induced by adding 0.02% L-arabinose with overnight growth at 37° C. Cells were harvested by centrifugation at 4° C., weighted and resuspended in lysis buffer (20 mM Tris-HCl, 500 mM NaCl and 5 mM Imidazole, pH=7.9, 3 mL/gram cell pellet). Lysozyme (100 μg mL^−1), DNase I (10 μg mL^−1) and protease inhibitor (1 tablet/8 grams of cells) (Roche Applied Science, Indianapolis, Ind.) were added to the solution. Following disruption in a French Press, cell lysate was centrifuged at 30,000 g for […] at 4° C. […] The 6×His-OPRTs were eluted with a gradient of imidazole (20 mM ˜500 mM). The OPRT bands were visualized on SDS-PAGE gels and fractions with high purity were pooled, made to 10% glycerol and 10 mM β-ME (final concentration), concentrated and dialyzed overnight at 4° C. to remove imidazole. His-tags were removed during dialysis by the presence of thrombin (1 unit/0.1 mg). His-tag free OPRTs were purified by Superdex 200 26/60 Gel filtration column, concentrated and stored at −80° C. […] Reactions were monitored by the absorbance increase at 295 nm to give an extinction coefficient of 3.67 mM^−1 cm^−1.
# PfOPRT [2] = target: T2, PfOPRT (Plasmodium falciparum, UniProt Q8I3Y0); experiment: PfOPRT kinetic and inhibition assay (OMP with PA or PPi)
# T2 construct: His6 (thrombin-cleavable) (N, cleaved yes); made in house; host or cells: E. coli BL21-AI
# T2 sequence (Q8I3Y0 1-281): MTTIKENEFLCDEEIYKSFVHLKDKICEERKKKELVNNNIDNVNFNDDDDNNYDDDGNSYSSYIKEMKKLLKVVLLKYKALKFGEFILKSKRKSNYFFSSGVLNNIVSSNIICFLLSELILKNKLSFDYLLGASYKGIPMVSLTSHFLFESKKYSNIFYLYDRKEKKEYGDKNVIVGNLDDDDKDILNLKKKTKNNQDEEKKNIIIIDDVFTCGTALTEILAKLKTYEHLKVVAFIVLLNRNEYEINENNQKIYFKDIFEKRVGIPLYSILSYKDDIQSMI
# Description: as §1
# HsOPRT [3] = target: T1, HsOPRT; experiment: HsOPRT catalytic activity with p-nitrophenyl β-D-ribose 5′-phosphate as substrate; conditions: with PA or pyrophosphate; absorbance at 400 nm
# Description: (§2) The PfOPRT and HsOPRT catalytic activities with p-nitrophenyl β-D-ribose 5′-phosphate were measured at 25° C. in solutions containing 50 mM Tris-HCl (pH=8.0), 5 mM MgCl2 and varied concentrations of p-nitrophenyl β-D-ribose 5′-phosphate and PA or pyrophosphate. Reaction rates were monitored through the absorbance increase at 400 nm.
# PfOPRT [4] = target: T2, PfOPRT; experiment: PfOPRT catalytic activity with p-nitrophenyl β-D-ribose 5′-phosphate as substrate; conditions: with PA or pyrophosphate; absorbance at 400 nm; conditions could detect 10^−6 of normal activity
# Description: as §2
# [5] = competitive inhibition with respect to OMP, PPi as substrate, 25° C., pH 8.0
compound,measurement,setting,value
"O=C(O)c1cc(=O)[nH]c(=O)n1[C@@H]1O[C@H](COP(=O)(O)O)[C@@H](O)[C@H]1O [OMP, orotidine 5′-monophosphate, reference compound]",reduction of kcat/Km with PA relative to PPi as the nucleophile,"HsOPRT [1]; OMP, PA versus PPi",8.3 fold
same,reduction of kcat/Km with PA relative to PPi as the nucleophile,"PfOPRT [2]; OMP, PA versus PPi",110 fold
O=[N+]([O-])c1ccc(O[C@@H]2O[C@H](COP(=O)(O)O)[C@@H](O)[C@H]2O)cc1 [p-nitrophenyl β-D-ribose 5′-phosphate],catalytic activity as substrate (O-glycosidic bond cleavage),HsOPRT [3],Poor catalytic activity
same,Ki,HsOPRT [1],41 nM
same,Km/Ki,HsOPRT [1]; Km of OMP over Ki of inhibitor,38
same,catalytic activity as substrate (O-glycosidic bond cleavage),PfOPRT [4],did not catalyze the O-glycosidic bond cleavage
same,Ki,PfOPRT [2],40 nM
same,Km/Ki,PfOPRT [2]; Km of OMP over Ki of inhibitor,93
"O=[N+]([O-])c1ccc(O[C@@H]2O[C@H](CO)[C@@H](O)[C@H]2O)cc1 [p-nitrophenyl β-D-ribose, reference compound]",Ki,HsOPRT [1]; [5],121 nM
same,Ki,PfOPRT [2]; [5],188 nM
